These are literature values, as cited in patent US9857354B2, “Compositions and methods for prognosis and treatment of neoplasm” (NOVAZOI THERANOSTICS, INC., priority 2014, dated 2018).

Data set [1] concerns the target T1, KIFC1/microtubule (MT) binary complex (Homo sapiens, UniProt Q9BW19).
T1 sequence (Q9BW19 1-673): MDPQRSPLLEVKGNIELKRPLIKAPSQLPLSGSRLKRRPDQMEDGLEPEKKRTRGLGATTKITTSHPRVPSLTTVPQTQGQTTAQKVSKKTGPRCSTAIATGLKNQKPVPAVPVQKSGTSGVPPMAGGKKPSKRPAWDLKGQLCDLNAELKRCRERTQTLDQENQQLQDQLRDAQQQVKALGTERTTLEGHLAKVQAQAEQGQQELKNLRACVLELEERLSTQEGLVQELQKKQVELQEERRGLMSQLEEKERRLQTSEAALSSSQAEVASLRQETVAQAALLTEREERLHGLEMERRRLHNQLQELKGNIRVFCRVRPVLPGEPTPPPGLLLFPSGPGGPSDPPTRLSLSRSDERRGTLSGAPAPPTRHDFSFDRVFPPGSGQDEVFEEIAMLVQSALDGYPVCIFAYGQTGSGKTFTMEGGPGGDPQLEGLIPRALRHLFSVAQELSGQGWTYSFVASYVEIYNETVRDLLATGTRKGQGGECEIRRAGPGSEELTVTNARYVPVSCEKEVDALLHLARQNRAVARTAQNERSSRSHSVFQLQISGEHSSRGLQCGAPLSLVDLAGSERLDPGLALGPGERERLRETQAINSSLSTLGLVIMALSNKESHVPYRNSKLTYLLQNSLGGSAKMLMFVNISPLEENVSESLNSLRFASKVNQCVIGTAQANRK
Conditions: ATP-competitive and MT-noncompetitive; read-out: Ki, inhibition of MT-stimulated KIFC1 enzymatic activity.

The subject of data set [2] is BT-549 breast cancer cells. Conditions: BT-549 breast cancer cells with amplified centrosomes.

For `CCCc1cc(C(=O)N[C@H](Cc2ccc(-c3cccc(OC(F)(F)F)c3)nc2)C(=O)N[C@@H]2CCNC2)sc1C` [AZ82], in data set [1], the Ki (as a rule, a measure of affinity in units of concentration, obtained from inhibition or displacement) was 43 nM. Further, the centrosome declustering entry in data set [2] was “causes centrosome declustering”.
